Results: patent publication US8063096B2, “Spirocyclic 3-phenyl-3substituted-4-ketolactams and-lactones” (Bayer Cropscience AG, priority 2001, dated 2011)
Like-named read-outs stand apart in the source and are kept apart here.

How the values were obtained:
Tetranychus urticae = test: Tetranychus test (OP-resistant/dip treatment); format: in vivo; settings: 100 ppm active compound, bean plants dipped, OP-resistant
Procedure: [table] To produce a suitable preparation of active compound, 1 part by weight of active compound is mixed with the stated amounts of solvent and emulsifier, and the concentrate is diluted with emulsifier-containing water to the desired concentration. Bean plants (Phaseolus vulgaris) which are heavily infested by all stages of the greenhouse […] spider mite (Tetranychus urticae) are dipped into a preparation of active compound of the desired concentration. After the desired period of time, the activity in % is determined. 100% means that all spider mites have been killed; 0% means that none of the spider mites have been killed.

Phaedon cochleariae = test: Phaedon larvae test; format: in vivo; settings: 500 ppm active compound, cabbage leaves dipped
Procedure: (§1) [table] To produce a suitable preparation of active compound, 1 part by weight of active compound is mixed with the stated amounts of solvent and emulsifier, and the concentrate is diluted with emulsifier-containing water to the desired concentration. Cabbage leaves (Brassica oleracea) are treated by being dipped into the preparation of active compound of the desired concentration and are populated with larvae of the mustard beetle (Phaedon cochleariae) while leaves are still moist. After the desired period of time, the kill in % is determined. 100% means that all beetle larvae have been killed; 0% means that none of the beetle larvae have been killed.

Meloidogyne incognita = test: Meloidogyne test (gall formation on lettuce roots); format: in vivo; settings: 20 ppm active compound, nematicidal action by gall formation
Procedure: [table] To produce a suitable preparation of active compound, 1 part by weight of active compound is mixed with the stated amounts of solvent and emulsifier, and the concentrate is diluted with water to the desired concentration. Vessels are filled with sand, solution of active compound, Meloidogyne incognita egg/larvae suspension and lettuce seeds. The lettuce seeds germinate and the plants develop. On the roots, galls develop. After the desired period of time, the nematicidal action is determined in % by the formation of galls. 100% means that no galls have been found; 0% means that the number of galls on the treated plants corresponds to that of the untreated control.

Alopecurus [1] = test: Pre-emergence test, Alopecurus; format: in vivo; settings: pre-emergence/greenhouse; 250 g of ai/ha; after three weeks
Procedure: (§2) [table] To produce a suitable preparation of active compound, 1 part by weight of active compound is mixed with the stated amount of solvent, the stated amount of emulsifier is added and the concentrate is diluted with water to the desired concentration. Seeds of the test plants are sown in normal soil. After about 24 hours, the soil is sprayed with the preparation of active compound such that the particular amounts of active compound desired are applied per unit area. The concentration of the spray liquor is chosen such that the particular amounts of active compound desired are applied in 1000 l of water/ha. After three weeks, the degree of damage to the plants is rated in % damage in comparison to the development of the untreated control. The figures denote: • 0%=no effect (like untreated control) • 100%=total destruction

Avena fatua [2] = test: Pre-emergence test, Avena fatua; format: in vivo; settings: pre-emergence/greenhouse; 250 g of ai/ha; after three weeks
Procedure: as §2

Echinochloa [3] = test: Pre-emergence test, Echinochloa; format: in vivo; settings: pre-emergence/greenhouse; 250 g of ai/ha; after three weeks
Procedure: as §2

Setaria [4] = test: Pre-emergence test, Setaria; format: in vivo; settings: pre-emergence/greenhouse; 250 g of ai/ha; after three weeks
Procedure: as §2

Amaranthus [5] = test: Pre-emergence test, Amaranthus; format: in vivo; settings: pre-emergence/greenhouse; 250 g of ai/ha; after three weeks
Procedure: as §2

Sinapis [6] = test: Pre-emergence test, Sinapis; format: in vivo; settings: pre-emergence/greenhouse; 250 g of ai/ha; after three weeks
Procedure: as §2

Alopecurus [7] = test: Post-emergence test, Alopecurus; format: in vivo; settings: post-emergence/greenhouse; 250 g of ai/ha; after three weeks
Procedure: as §2, with “Test plants” for “Seeds”, “a height of 5-15 cm” for “the test plants”, “are” for “are sown in normal soil. After about 24 hours, the soil is”, “(=like” for “(like”

Avena fatua [8] = test: Post-emergence test, Avena fatua; format: in vivo; settings: post-emergence/greenhouse; 250 g of ai/ha; after three weeks
Procedure: as §2, with “Test plants” for “Seeds”, “a height of 5-15 cm” for “the test plants”, “are” for “are sown in normal soil. After about 24 hours, the soil is”, “(=like” for “(like”

Echinochloa [9] = test: Post-emergence test, Echinochloa; format: in vivo; settings: post-emergence/greenhouse; 250 g of ai/ha; after three weeks
Procedure: as §2, with “Test plants” for “Seeds”, “a height of 5-15 cm” for “the test plants”, “are” for “are sown in normal soil. After about 24 hours, the soil is”, “(=like” for “(like”

Setaria [10] = test: Post-emergence test, Setaria; format: in vivo; settings: post-emergence/greenhouse; 250 g of ai/ha; after three weeks
Procedure: as §2, with “Test plants” for “Seeds”, “a height of 5-15 cm” for “the test plants”, “are” for “are sown in normal soil. After about 24 hours, the soil is”, “(=like” for “(like”

Amaranthus [11] = test: Post-emergence test, Amaranthus; format: in vivo; settings: post-emergence/greenhouse; 250 g of ai/ha; after three weeks
Procedure: as §2, with “Test plants” for “Seeds”, “a height of 5-15 cm” for “the test plants”, “are” for “are sown in normal soil. After about 24 hours, the soil is”, “(=like” for “(like”

Sinapis [12] = test: Post-emergence test, Sinapis; format: in vivo; settings: post-emergence/greenhouse; 250 g of ai/ha; after three weeks
Procedure: as §2, with “Test plants” for “Seeds”, “a height of 5-15 cm” for “the test plants”, “are” for “are sown in normal soil. After about 24 hours, the soil is”, “(=like” for “(like”

Myzus persicae [13] = test: Test for persistency: Myzus persicae (root-systemic action); format: in vivo; settings: 4 ppm in soil, broad beans
Procedure: [table] To produce a suitable preparation of active compound, 1 part by weight of active compound is mixed with the stated amounts of solvent and emulsifier, and the concentrate is diluted with water to the desired concentration. The preparation of active compound is mixed intimately with the soil. The stated concentration refers to the amount of active compound per volume unit of soil (mg/l). The treated soil is filled into pots, and into these pots is planted pre-germinated broad beans. In this way, the active compound can be taken up from the soil into the roots of the plants and be transported into the leaves. After the stated number of days, peach aphids (Myzus persicae) are, in infection chambers, placed on the leaves. After the desired period of time, the kill in % is determined. 100% means that all aphids have been killed; 0% means that none of the aphids have been killed.

log P determination = format: physicochemical; settings: pH 2.3, pH 2.3
Myzus persicae [14] = test: Myzus test (leaf dip, cabbage); format: in vivo; settings: 500 ppm active compound, cabbage leaves dipped
Procedure: as §1, with “oleracea) which are heavily infested by peach aphids (Myzus persicae)” for “oleracea)”, “concentration.” for “concentration and are populated with larvae of the mustard beetle (Phaedon cochleariae) while leaves are still moist.”, “aphids” for “beetle larvae”

## COC1CCC2(CC1)NC(=O)C(Cl)(c1ccc(C)cc1C(F)(F)F)C2=O (stereo not drawn) [Ex. I-1-a-16]
Tetranychus urticae
  Kill rate in % after 7d: 100%

## Cc1cc(Cl)cc(Br)c1C1(Cl)C(=O)NC2(CCCOC2)C1=O (stereo not drawn) [Ex. I-1-b-9]
Phaedon cochleariae
  Kill rate in % after 7d: 100%

## COC1CCC2(CC1)NC(=O)C(Cl)(c1c(Cl)ccc(C)c1Cl)C2=O (stereo not drawn) [Ex. I-1-a-33]
Meloidogyne incognita
  Kill rate in % after 14d: 98%

## CCOC1CCC2(CC1)NC(=O)C(Cl)(c1cc(C)ccc1Br)C2=O (stereo not drawn) [Ex. I-1-a-41]
Phaedon cochleariae
  Kill rate in % after 7d: 100%
Tetranychus urticae
  Kill rate in % after 7d: 95%

## COC1CCC2(CC1)NC(=O)C(Cl)(c1c(Cl)cc(C)cc1Cl)C2=O (stereo not drawn) [Ex. I-1-a-6]
Phaedon cochleariae
  Kill rate in % after 7d: 100%
Alopecurus [1]
  % damage, Alopecurus: 100%
Avena fatua [2]
  % damage, Avena fatua: 95%
Echinochloa [3]
  % damage, Echinochloa: 95%
Setaria [4]
  % damage, Setaria: 100%
Amaranthus [5]
  % damage, Amaranthus: 100%
Sinapis [6]
  % damage, Sinapis: 90%
Alopecurus [7]
  % damage, Alopecurus: 95%
Avena fatua [8]
  % damage, Avena fatua: 95%
Echinochloa [9]
  % damage, Echinochloa: 100%
Setaria [10]
  % damage, Setaria: 100%
Amaranthus [11]
  % damage, Amaranthus: 90%
Sinapis [12]
  % damage, Sinapis: 80%

## COC1CCC2(CC1)NC(=O)C(Cl)(c1c(C)cc(Br)cc1C)C2=O (stereo not drawn) [Ex. I-1-a-9]
Phaedon cochleariae
  Kill rate in % after 7d: 90%
Alopecurus [1]
  % damage, Alopecurus: 100%
Avena fatua [2]
  % damage, Avena fatua: 80%
Echinochloa [3]
  % damage, Echinochloa: 100%
Setaria [4]
  % damage, Setaria: 100%
Sinapis [6]
  % damage, Sinapis: 90%
Alopecurus [7]
  % damage, Alopecurus: 95%
Avena fatua [8]
  % damage, Avena fatua: 90%
Echinochloa [9]
  % damage, Echinochloa: 100%
Setaria [10]
  % damage, Setaria: 100%
Sinapis [12]
  % damage, Sinapis: 80%

## COC1CCC2(CC1)NC(=O)C(Cl)(c1cc(C)ccc1Cl)C2=O (stereo not drawn) [Ex. I-1-a-1]
Phaedon cochleariae
  Kill rate in % after 7d: 100%

## COC1CCC2(CC1)OC(=O)C(Cl)(c1cc(C)c(C)cc1C)C2=O (stereo not drawn) [Ex. I-2-a-1]
Myzus persicae [13]; infection after 7 d
  Kill rate in % after 7d: 100%
Myzus persicae [13]; infection after 21 d
  Kill rate in % after 7d: 95%
Myzus persicae [13]; infection after 35 d
  Kill rate in % after 7d: 0%
Log P determination; read-out: log P (pH 2.3)
  logP: 4.07
Log P determination; read-out: logP (2.3)
  logP: 4.07

## COC1CCC2(CC1)NC(=O)C(Cl)(c1c(Cl)cc(Cl)c(C)c1Cl)C2=O (stereo not drawn) [Ex. I-1-a-27]
Meloidogyne incognita
  Kill rate in % after 14d: 100%
Myzus persicae [14]
  Kill rate in % after 6d: 90%

## Cc1cc(Cl)ccc1C1(Cl)C(=O)NC2(CCOCC2)C1=O (stereo not drawn) [Ex. I-1-c-4]
Myzus persicae [14]
  Kill rate in % after 6d: 95%

## Cc1cc(Br)cc(Cl)c1C1(Cl)C(=O)NC2(CCCOC2)C1=O (stereo not drawn) [Ex. I-1-b-8]
Phaedon cochleariae
  Kill rate in % after 7d: 100%
